# Measurements taken from PubChem BioAssay AID236 (DTP/NCI, 2004).
# Where “and” joins values, the source holds several entries; their conditions need not be identical. Equal values may be shown once. Toxic doses and inconclusive results are not listed.
# System: AK4 lymphoid leukemia ip, C3AKF1 mice, survival
# Test: NCI In Vivo Anticancer Drug Screen. Data for tumor model AK4 Lymphoid Leukemia (intraperitoneal) in C3AKF1 (CHKRF1) mice
# Conditions: endpoint: median survival time, vehicle: saline, higher = longer survival
# Procedure: The antitumor activity of compounds was measured in mice bearing transplantable tumors. Survival or tumor size were measured and the results are expressed as the measurement made in the treated group (T) divided by the measurement made in the vehicle treated control group (C). The tumor model used in this assay is AK4 Lymphoid Leukemia (intraperitoneal) in C3AKF1 (CHKRF1) mice
# [1] = dose: 20.0 mg/kg/injection, schedule: Q01DX010 (ip)
# [2] = dose: 40.0 mg/kg/injection, schedule: Q01DX010 (ip)
# [3] = dose: 0.5 mg/kg/injection, schedule: Q01DX010 (ip)
# [4] = dose: 200.0 mg/kg/injection, schedule: Q01DX010 (ip)
# [5] = dose: 25.0 mg/kg/injection, schedule: Q01DX010 (ip)
# [6] = dose: 50.0 mg/kg/injection, schedule: Q01DX010 (ip)
# [7] = dose: 100.0 mg/kg/injection, schedule: Q01DX010 (ip)
# [8] = dose: 62.5 mg/kg/injection, schedule: Q01DX010 (ip)
# [9] = dose: 125.0 mg/kg/injection, schedule: Q01DX010 (ip)
# [10] = dose: 250.0 mg/kg/injection, schedule: Q01DX010 (ip)
# [11] = dose: 500.0 mg/kg/injection, schedule: Q01DX010 (ip)
# [12] = dose: 15.6 mg/kg/injection, schedule: Q01DX010 (ip)
# [13] = dose: 31.3 mg/kg/injection, schedule: Q01DX010 (ip)
compound,measurement,setting,value
O=c1cn[nH]c(=O)[nH]1,T/C,"dose: 32.0 mg/kg/injection, schedule: Q01DX006 (iv)",88 % of control
same,T/C,"dose: 32.0 mg/kg/injection, schedule: Q01DX010 (ip)",88 % of control
same,T/C,"dose: 32.0 mg/kg/injection, schedule: Q01DX010 (sc)",88 % of control
same,T/C,"dose: 32.0 mg/kg/injection, schedule: Q02DX005 (im)",94 % of control
same,T/C,"dose: 64.0 mg/kg/injection, schedule: Q01DX006 (iv)",100 % of control
same,T/C,"dose: 64.0 mg/kg/injection, schedule: Q01DX010 (ip)",88 % of control
same,T/C,"dose: 64.0 mg/kg/injection, schedule: Q01DX010 (sc)",88 % of control
same,T/C,"dose: 64.0 mg/kg/injection, schedule: Q02DX005 (im)",105 % of control
same,T/C,"dose: 100.0 mg/kg/injection, schedule: Q03DX Z (ip)",88 % of control
same,T/C,"dose: 125.0 mg/kg/injection, schedule: Q01DX001 (ip)",88 % of control and 94 % of control
same,T/C,"dose: 125.0 mg/kg/injection, schedule: Q01DX010 (oral)",100 % of control
same,T/C,"dose: 125.0 mg/kg/injection, schedule: Q07DX Z (ip)",111 % of control
same,T/C,"dose: 128.0 mg/kg/injection, schedule: Q01DX006 (iv)",88 % of control
same,T/C,"dose: 128.0 mg/kg/injection, schedule: Q01DX010 (ip)",88 % of control
same,T/C,"dose: 128.0 mg/kg/injection, schedule: Q01DX010 (sc)",88 % of control
same,T/C,"dose: 128.0 mg/kg/injection, schedule: Q02DX005 (im)",122 % of control
same,T/C,"dose: 200.0 mg/kg/injection, schedule: Q03DX Z (ip)",100 % of control
same,T/C,"dose: 250.0 mg/kg/injection, schedule: Q01DX001 (ip)",94 % of control and 100 % of control
same,T/C,"dose: 250.0 mg/kg/injection, schedule: Q01DX010 (oral)",94 % of control
same,T/C,"dose: 250.0 mg/kg/injection, schedule: Q07DX Z (ip)",88 % of control
same,T/C,"dose: 256.0 mg/kg/injection, schedule: Q01DX006 (iv)",105 % of control
same,T/C,"dose: 256.0 mg/kg/injection, schedule: Q01DX010 (ip)",100 % of control
same,T/C,"dose: 256.0 mg/kg/injection, schedule: Q01DX010 (sc)",105 % of control
same,T/C,"dose: 256.0 mg/kg/injection, schedule: Q02DX005 (im)",88 % of control
same,T/C,"dose: 400.0 mg/kg/injection, schedule: Q03DX Z (ip)",94 % of control
same,T/C,"dose: 500.0 mg/kg/injection, schedule: Q01DX001 (ip)",94 % of control and 105 % of control
same,T/C,"dose: 500.0 mg/kg/injection, schedule: Q01DX010 (oral)",111 % of control
same,T/C,"dose: 500.0 mg/kg/injection, schedule: Q07DX Z (ip)",88 % of control
same,T/C,"dose: 800.0 mg/kg/injection, schedule: Q03DX Z (ip)",94 % of control
same,T/C,"dose: 1000.0 mg/kg/injection, schedule: Q01DX001 (ip)",100 % of control and 105 % of control
same,T/C,"dose: 1000.0 mg/kg/injection, schedule: Q01DX010 (oral)",94 % of control
same,T/C,"dose: 1000.0 mg/kg/injection, schedule: Q07DX Z (ip)",100 % of control
O=c1[nH]cc(F)c(=O)[nH]1,T/C,[1],162 % of control
same,T/C,[2],112 % of control
same,T/C,"dose: 80.0 mg/kg/injection, schedule: Q01DX010 (ip)",93 % of control
CC[C@]1(O)C[C@H]2CN(CCc3c([nH]c4ccccc34)[C@@](C(=O)OC)(c3cc4c(cc3OC)N(C=O)[C@H]3[C@@](O)(C(=O)OC)[C@H](OC(C)=O)[C@]5(CC)C=CCN6CC[C@]43[C@@H]65)C2)C1,T/C,"dose: 0.03 mg/kg/injection, schedule: Q01DX010 (ip)",100 % of control and 115 % of control
same,T/C,"dose: 0.03 mg/kg/injection, schedule: Q01DX Z (ip)",96 % of control and 106 % of control
same,T/C,"dose: 0.06 mg/kg/injection, schedule: Q01DX010 (ip)",90 % of control and 112 % of control
same,T/C,"dose: 0.06 mg/kg/injection, schedule: Q01DX Z (ip)",96 % of control and 106 % of control
same,T/C,"dose: 0.12 mg/kg/injection, schedule: Q01DX Z (ip)",102 % of control and 106 % of control
same,T/C,"dose: 0.25 mg/kg/injection, schedule: Q01DX010 (ip)",115 % of control
same,T/C,"dose: 0.25 mg/kg/injection, schedule: Q01DX Z (ip)",102 % of control and 120 % of control
same,T/C,[3],93 % of control
same,T/C,"dose: 62.5 micrograms/kg/injection, schedule: Q01DX010 (ip)",112 % of control
CN(N=O)C(N)=O,T/C,"dose: 10.0 mg/kg/injection, schedule: Q01DX010 (ip)",162 % of control
same,T/C,[1],225 % of control
same,T/C,[2],112 % of control
CN(C)CC(=O)c1ccc(O)c(O)c1,T/C,[4],112 % of control
same,T/C,"dose: 300.0 mg/kg/injection, schedule: Q01DX010 (ip)",100 % of control
same,T/C,"dose: 450.0 mg/kg/injection, schedule: Q01DX010 (ip)",112 % of control
same,T/C,"dose: 675.0 mg/kg/injection, schedule: Q01DX010 (ip)",118 % of control
CN(C)c1ccc(/C=C\c2ccnc3ccccc23)cc1,T/C,"dose: 1.5 mg/kg/injection, schedule: Q01DX010 (ip)",100 % of control
same,T/C,"dose: 3.0 mg/kg/injection, schedule: Q01DX010 (ip)",100 % of control
same,T/C,"dose: 6.0 mg/kg/injection, schedule: Q01DX010 (ip)",100 % of control
same,T/C,"dose: 12.0 mg/kg/injection, schedule: Q01DX010 (ip)",100 % of control
Nc1nc(F)nc2c1ncn2C1OC(CO)C(O)C1O (stereo not drawn),T/C,[3],105 % of control
same,T/C,"dose: 1.0 mg/kg/injection, schedule: Q01DX010 (ip)",100 % of control
same,T/C,"dose: 2.0 mg/kg/injection, schedule: Q01DX010 (ip)",100 % of control and 111 % of control
same,T/C,"dose: 4.0 mg/kg/injection, schedule: Q01DX010 (ip)",100 % of control and 105 % of control
CSc1ncnc2nc[nH]c12,T/C,[5],100 % of control
same,T/C,[6],100 % of control
same,T/C,[7],100 % of control
same,T/C,[4],100 % of control
c1ccc(CCSc2ncnc3nc[nH]c23)cc1,T/C,[8],100 % of control
same,T/C,[9],100 % of control
same,T/C,[10],100 % of control
same,T/C,[11],100 % of control
Nc1c(Br)cc2c(c1Br)Cc1cc([N+](=O)[O-])ccc1-2,T/C,[8],100 % of control and 105 % of control
same,T/C,[9],94 % of control and 100 % of control
same,T/C,[10],94 % of control and 105 % of control
same,T/C,[11],94 % of control
CCn1cnc2c(=S)nc[nH]c21,T/C,[12],100 % of control
same,T/C,[13],88 % of control
same,T/C,[8],88 % of control
same,T/C,[9],105 % of control
COc1ccc2c(c1OC)C(=O)O[C@@H]2[C@H]1c2c(cc3c(c2OC)OCO3)CCN1C,T/C,"dose: 0.9 mg/kg/injection, schedule: Q01DX010 (ip)",100 % of control
same,T/C,"dose: 1.9 mg/kg/injection, schedule: Q01DX010 (ip)",87 % of control
same,T/C,"dose: 3.9 mg/kg/injection, schedule: Q01DX010 (ip)",87 % of control
same,T/C,"dose: 7.8 mg/kg/injection, schedule: Q01DX010 (ip)",111 % of control and 87 % of control
same,T/C,[12],100 % of control
same,T/C,[13],100 % of control
same,T/C,[8],94 % of control
same,T/C,[9],88 % of control
same,T/C,[10],88 % of control
CSCS(=O)C[C@H](CO)NC(=O)/C=C/c1c(C)[nH]c(=O)[nH]c1=O (stereo partly drawn),T/C,"dose: 125.0 micrograms/kg/injection, schedule: Q01DX010 (ip)",93 % of control
same,T/C,"dose: 250.0 micrograms/kg/injection, schedule: Q01DX010 (ip)",87 % of control
same,T/C,"dose: 500.0 micrograms/kg/injection, schedule: Q01DX010 (ip)",87 % of control
O=[n+]1c2c(n([O-])c3ccccc31)-c1cccc3cccc-2c13,T/C,"dose: 3.13 mg/kg/injection, schedule: Q01DX010 (ip)",100 % of control
same,T/C,"dose: 6.25 mg/kg/injection, schedule: Q01DX010 (ip)",100 % of control
same,T/C,"dose: 12.5 mg/kg/injection, schedule: Q01DX010 (ip)",100 % of control
same,T/C,[5],88 % of control and 94 % of control
same,T/C,[6],88 % of control
same,T/C,[7],88 % of control
